Assay results taken from patent US9844572B2, “Promotion of neuronal integration in neural stem cell grafts” (Life & Brain GmbH, priority 2009, dated 2017).
“Also recorded” adds a separate entry of the source.

Assays:
KDR = KDR (Homo sapiens, UniProt P35968); settings: cited from earlier work
[1] = test system: VEGF-induced angiogenesis; settings: rabbit corneal model; cited from earlier work
human Neurons [2] = assay: Dunn chamber migration assay (chemotaxis of immature neurons); format: cell-based; settings: factor 200 ng/ml in outer well only; 6 h recording
Experimental: FIG. 7A Dunn chamber migration assay. Schematic representation of a direct-viewing Dunn chemotaxis chamber showing the position of the inner well, the bridge, the outer well and the overlying coverslip (a) (Zicha et al., 1991 1998, Zhang et al., 2003). Adopted from Hawksley. Calculation of the forward migration index (FMI) during a 6 h recording period. FMI values can be either positive or negative, depending on the direction in which the cell is migrating (b).
FIG. 7B Directionality analysis of cell movement using scatter plots of cell displacement (c-i). The diagrams orientate such that the position of the outer well of the chamber are vertical (y direction). Each point represents the final position of a cell at the end of the recording period of 6-h; the starting point of migration is fixed at the intersection of the two axes. As control migration of human neurons was monitored in medium only (c). For assessing chemokinesis, equal amounts of FGF2 (d) or VEGF (e) were added to both the outer and the inner wells of the chamber. Chemotaxis was tested by placing FGF2 (f) or VEGF (g) in the outer well only. Migration of human neurons treated with BFBF1120 was monitored towards a FGF2 (h) and VEGF (i) gradient.
Chemotaxis of immature neurons was directly viewed and recorded in stable concentration gradients of FGF2 (200 ng/ml) or VEGF (200 ng/ml), respectively, with or without the addition of BIBF1120 ([…]) using a Dunn chemotaxis chamber (Allen et al., 1998 1998, Zhang et al., 2003). This device is made from a Helber bacteria counting chamber by grinding a circular well in the central platform to leave a 1 mm-wide annular bridge between the inner and the outer well. Chemoattractants added to the outer well of the chamber will diffuse across the bridge to the inner well and form a linear steady gradient within ˜30 min after loading the chamber (Zicha et al., 1991; Webb et al., 1996). To study chemotaxis, the outer well of the Dunn chamber can be filled with medium containing a chemoattractant, whereas the concentric inner well is filled with medium only. Coverslips carrying the cultured cells are inverted and placed onto the chamber. Cell locomotion is recorded through the annular bridge between the concentric inner and outer well. For assessing chemokinesis, the outer and inner wells are filled with equal concentrations of the chemoattractant. A period of 6 h was chosen to assess cell migration.
To determine the efficiency of forward migration during the 6 h recording period, the FMI was calculated as the ratio of forward progress to the total path length (Foxman et al., 1999; Zhang et al.).

human Neurons [3] = assay: Transwell (Boyden chamber) migration assay of human neurons towards chemoattractant-soaked agarose beads; format: cell-based; settings: agarose beads soaked with 30 ng/ml factor in lower well; 20 hours
Experimental: FIG. 1B Migration of human Neurons monitored after 20 hours in culture towards either medium or plated neural stem cells derived from human embryonic stem cells (lt-hESNSC) or agarose beads pre-soaked with BDNF, EGF, SDF1, SCF, PDGF, FGF2 or VEGF. Bars represent percentage of migrated neurons (*P<0.03; Statistical significance was determined in relation to medium control).
(§1) One way to study migration at the cellular level is to use microchemotaxis chambers (Boyden chambers; see FIG. 1A) (Richards & McCullough, 1984). A membrane separates the upper and the lower part of the chamber. Cells are plated on the PO/LN coated membrane that separates the upper and the lower well. Chemoattractants are introduced in the well of the lower compartment e.g., by soaking agarose beads (affi-gel blue gel) with the corresponding chemoattractants. 100 μl of the pre-soaked beads are introduced in the lower well and covered with medium before placing the upper well on top. The chemoattractant will be released over time, thus creating a chemoattractive gradient. If the agent acts as a chemoattractant, the attached cells will migrate through the filter towards the gradient of the attracting factor. Small pore sizes (8 μm) require active migration rather than passive falling of the cells through the filter.
In this study agarose beads were soaked with either 30 ng/ml EGF, BDNF, SDF1, SCF, PDFG-AA, FGF2 or VEGF (FIG. 1B). The chemoattractive effect of NSCs on neurons was studied by plating lt-hESNSC directly in the PO/LN coated lower well before placing the upper well with the attached neurons on top. After a culture period of 20 hours, chambers were fixed with 4% PFA for 10 min. Cells that had not migrated and were still on the upper side of the membrane were scraped off, while the migrated cells on the lower side were DAPI stained and counted.

primary tumor = settings: cited from earlier work
[4] = test system: immature neurons in the presence of neural stem/progenitor cells (hES-NSC70+N30); assay: Boyden chamber assay of neural stem/progenitor cells mixed with immature neurons (hES-NSC70+N30) pre-incubated with inhibitor; format: cell-based, human; settings: hES-NSC70+N30 pre-incubated for 30 minutes with agent
Experimental: Bars represent the percentage of migrated neurons after 20 hours in culture towards medium or a chemoattractant either with or without VEGF R2-AB or endostatin treatment. Cell numbers were normalised to the number of plated neurons (*P≦0.02; statistical significance was determined in relation to the control).
as §1, with “If the agent acts as a chemoattractant, the attached cells will migrate through the filter towards the gradient of the attracting factor. Small pore sizes (8 μm) require active migration rather than passive falling of the cells through the filter.” left out
In this study agarose beads were soaked with either 30 ng/ml EGF, BDNF, SDF1, SCF, PDFG-AA, FGF2 or VEGF (FIG. 1B). […] Cells that had not migrated and were still on the upper side of the membrane were scraped off, while the migrated cells on the lower side were DAPI stained and counted. […]

[5] = test system: lt-hESNSC mixed with immature neurons on hippocampal rat slice cultures; assay: Transplantation onto rat hippocampal slice cultures (migration of human neurons from mixed grafts); format: cell-based
Experimental: Using a vibroslicer, 400 μm horizontal sections were generated from the hippocampus of 9-10 day-old Wistar rats. The slices included the dentate gyrus and the entorhinal and temporal cortex (Scheffler et al., 2003; Opitz et al., 2007). They were transferred onto a polyester membrane and cultivated at 35° C., 5% CO2 and saturated air humidity in an initial culture medium containing 25% normal horse serum, which was gradually replaced after 3-5 days by chemically defined, serum-free culture medium based on DMEM/F12, N2 supplement and B27 supplement. Medium was changed every other day and 5-7 days after explantation a cell suspension of 50 000 cells in a 1 μl volume was spotted onto the entorhinal cortex of the slice using an injection device.
For immunohistochemical analysis of slice cultures (FIG. 4), cultures were fixed in 4% paraformaldehyde for 4 hours and subsequently washed several times with PBS. Slices were permeabilized/blocked with 0.1% Triton X-100+10% FCS for 6 hours at 25° C. Incubation with primary antibody was for 16 hours at room temperature, followed by washing steps with PBS for 5 hours. Incubation with the secondary antibodies was for 2 hours at room temperature.
To further investigate whether endostatin can also interfere with the chemoattractive effect of neural stem/progenitor cells on immature neurons in a context closer to an in vivo situation, hippocampal rat slice culture experiments were performed. HES-NSC70+N30 were pre-incubated for 30 minutes in 30 μl Cytocon™-Buffer II with either 2 μl stock solution endostatin (n=9) or with 2 μl of the solvent of endostatin (citric-phosphate buffer) as control (n=9), and then deposited on the entorhinal cortex of hippocampal slice cultures. Cultures of pure human neurons were transplanted as positive control (n=9). The slices were further cultured for 18 days after deposition of the cells. 1 μl/ml endostatin stock solution was continuously applied every day to the slice media.
To further investigate whether BIBF1120 can also interfere with the chemoattractive effect of neural stem/progenitor cells on immature neurons, hippocampal rat slice culture experiments were performed. Lt-hESNSC mixed with purified DCX-EGFP positive neurons (30.0000 lt-hESNSC mixed with 100.000 purified neurons per μl) were pre-incubated for 30 min. in Cytocon™-Buffer II with or without 2 μg/ml BIBF1120, respectively, and then deposited on the entorhinal cortex (EC) of hippocampal slice cultures. The slices were further cultured for 7 days after deposition of the cells. 2 μg/ml BIBF1120 was continuously applied every day to the slice media.

KDR, sequence (P35968 20-1356): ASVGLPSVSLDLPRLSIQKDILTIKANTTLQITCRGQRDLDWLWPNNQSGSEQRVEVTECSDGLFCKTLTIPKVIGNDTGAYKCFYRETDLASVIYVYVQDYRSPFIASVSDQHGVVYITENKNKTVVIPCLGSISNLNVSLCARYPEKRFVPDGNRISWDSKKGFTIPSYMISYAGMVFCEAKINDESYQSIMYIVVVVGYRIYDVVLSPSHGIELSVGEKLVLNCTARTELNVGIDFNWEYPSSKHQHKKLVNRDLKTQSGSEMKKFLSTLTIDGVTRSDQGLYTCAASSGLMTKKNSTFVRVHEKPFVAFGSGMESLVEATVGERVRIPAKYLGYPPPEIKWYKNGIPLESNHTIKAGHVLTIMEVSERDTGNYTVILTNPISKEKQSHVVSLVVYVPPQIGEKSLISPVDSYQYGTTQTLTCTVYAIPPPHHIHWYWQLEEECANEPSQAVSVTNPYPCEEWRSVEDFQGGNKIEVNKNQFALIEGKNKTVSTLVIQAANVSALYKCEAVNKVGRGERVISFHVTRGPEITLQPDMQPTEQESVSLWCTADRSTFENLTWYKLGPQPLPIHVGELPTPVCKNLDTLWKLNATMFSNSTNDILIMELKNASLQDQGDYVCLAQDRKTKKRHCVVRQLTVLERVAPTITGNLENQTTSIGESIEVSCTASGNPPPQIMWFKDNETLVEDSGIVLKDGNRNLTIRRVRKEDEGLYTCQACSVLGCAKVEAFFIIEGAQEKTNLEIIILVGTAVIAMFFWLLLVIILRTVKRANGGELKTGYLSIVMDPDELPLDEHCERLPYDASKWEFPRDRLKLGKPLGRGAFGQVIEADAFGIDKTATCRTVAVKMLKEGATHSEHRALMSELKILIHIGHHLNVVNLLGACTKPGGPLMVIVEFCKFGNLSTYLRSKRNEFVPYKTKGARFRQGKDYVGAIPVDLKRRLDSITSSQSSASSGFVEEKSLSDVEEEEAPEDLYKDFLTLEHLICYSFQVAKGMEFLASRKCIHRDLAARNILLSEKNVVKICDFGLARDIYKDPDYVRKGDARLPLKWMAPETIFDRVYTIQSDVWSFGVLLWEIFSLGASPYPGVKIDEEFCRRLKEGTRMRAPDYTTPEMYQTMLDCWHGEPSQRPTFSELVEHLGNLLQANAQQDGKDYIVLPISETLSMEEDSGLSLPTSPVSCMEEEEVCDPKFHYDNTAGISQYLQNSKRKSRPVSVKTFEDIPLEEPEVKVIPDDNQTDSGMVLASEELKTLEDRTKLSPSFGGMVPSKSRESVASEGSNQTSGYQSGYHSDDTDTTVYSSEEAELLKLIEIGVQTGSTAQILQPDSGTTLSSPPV

For ATWLPPR, the “VEGF binding to cell-displayed KDR” value (KDR) is listed as “abolish” and the VEGF-induced angiogenesis [1] is listed as “abolished”.
In the case of “FGF2: fibroblast growth factor 2, an 18 kDa protein”, the “chemotaxis of human neurons towards gradient of the factor” value (human Neurons [2]) is reported as “neuronal chemoattractants; also recorded: clear directionality of migration” and the “chemoattractive effect on neurons in the chamber migration assay” value (from here on “chemoattractive effect on neurons”) (human Neurons [3]) is reported as “neuronal chemoattractants; also recorded: significant chemoattractive effect”.
In the case of “PDGF: platelet-derived growth factor, tested as neuronal chemoattractant”, the “chemoattractive effect on neurons” value (human Neurons [3]) is reported as “neuronal chemoattractants; also recorded: significant chemoattractive effect”.
With “SDF1: soluble factor tested as neuronal chemoattractant” the “chemoattractive effect on neurons” value (human Neurons [3]) was “neuronal chemoattractants”.
With VEGF the “chemotaxis of human neurons towards gradient of the factor” value (human Neurons [2]) was “neuronal chemoattractants; also recorded: clear directionality of migration” and the “chemoattractive effect on neurons” value (human Neurons [3]) was “neuronal chemoattractants; also recorded: significant chemoattractive effect”.
For endostatin, the “toxicity during continued treatment” value (primary tumor; in vivo) is given as “no toxicity”, the “tumor regression in size” value (primary tumor; recombinant E. coli-derived endostatin added at a site remote from the primary tumor) is given as “over 150 fold” and the “tumor size after regression” value (primary tumor; recombinant E. coli-derived endostatin) is given as “less than 1 mm^3”. For the same substance, the “migration of immature neurons towards PDGF gradient” value ([4]; agarose beads releasing PDGF) was “additionally enhanced the effect”, the “migration of immature neurons towards media” value ([4]; plain agarose beads, 20 hours, vs solvent control) was “significantly enhanced migration; also recorded: most prominent enhancement of migration” and the “migration of single human neurons away from the transplantation core (horizontal)” value ([5]; hES-NSC70+N30, endostatin pre-incubation and daily application, day 18) was “up to 800 μm”. For the same substance, the “migration horizontally over the slice compared to control population” value ([5]; hES-NSC70+N30, endostatin treated, 18 days after transplantation) was “enhanced migration and integration capacity” and the “depth reached along the z-axis” value ([5]; hES-NSC70+N30, endostatin treated, day 18) was 350 μm.
